One test has as its target 5-HT6 (Homo sapiens, UniProt P50406). The test can be described thus: 5-HT6 receptor inhibition/binding (Tables 2-3).
Test [1] concerns the target T1, human gene recombinant 5-HT7 receptor expressed in CHO cells (Homo sapiens, UniProt P34969).
T1 construct: expressed in transfected cells; host or cells: CHO cells (membrane preparation)
Kind of test: Binding affinity for the 5-HT7 serotonin receptor ([3H]LSD radioligand). The method, then:
In this example, the human gene recombinant 5-HT7 receptor expressed in CHO cells was used. 1 nM [^3H]LSD, 5-HT7 receptor membrane (15 μg/well), a test drug, 10 mM MgCl2, 50 mM Tris-HCl buffer (pH 7.4) containing 0.1 mM EDTA, etc. were added to a vessel until the final volume reached 0.25 ml. The test drug was used at various concentrations. The mixture was cultured at 25° C. for 90 min. The culture was rapidly filtered through a Whatman GF/C glass fiber filter, which had been previously wetted with 0.3% polyethyleneimine using a Brandel harvester, to quench the reaction. The reaction mixture was washed with cold 50 mM Tris-HCl buffer. The filter was covered with MeltiLex, sealed in a sample bag, and dried in an oven. Counting was performed using MicroBeta (Wallac) and nonspecific binding was measured in the presence of […]. The K value of the test drug was obtained from nonlinear regression analysis (GraphPad Prism Program, San Diego, USA) of isotherms obtained by repeatedly performing the experiment on the drug at 10-11 stage concentrations in two test tubes (each twice).
The % inhibition values of the inventive compounds having different Y structures at a concentration of 10 μM against the 5-HT7 serotonin receptor were measured. Further, the binding affinity (Ki) values of the inventive compounds having different Y structures at a concentration of 10 μM for the 5-HT7 serotonin receptor were measured.

The next test has as its target T2, 5-HT2C (Homo sapiens, UniProt P28335).
T2 sequence (P28335 33-458): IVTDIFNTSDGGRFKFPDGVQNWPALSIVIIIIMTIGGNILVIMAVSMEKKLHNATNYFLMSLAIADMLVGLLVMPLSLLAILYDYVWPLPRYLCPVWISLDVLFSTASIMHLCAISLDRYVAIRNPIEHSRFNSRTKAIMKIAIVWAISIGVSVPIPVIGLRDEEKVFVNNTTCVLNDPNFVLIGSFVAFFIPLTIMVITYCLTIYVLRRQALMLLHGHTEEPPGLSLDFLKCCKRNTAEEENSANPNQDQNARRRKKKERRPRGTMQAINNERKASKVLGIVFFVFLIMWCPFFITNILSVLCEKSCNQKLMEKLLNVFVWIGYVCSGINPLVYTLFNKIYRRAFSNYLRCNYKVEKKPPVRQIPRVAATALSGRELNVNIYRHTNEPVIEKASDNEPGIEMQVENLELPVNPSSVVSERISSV
Kind of test: 5-HT2C receptor inhibition/binding (Tables 1-3).

Another test has as its target T3, 5-HT1A (Homo sapiens, UniProt P08908).
T3 sequence (P08908 1-422): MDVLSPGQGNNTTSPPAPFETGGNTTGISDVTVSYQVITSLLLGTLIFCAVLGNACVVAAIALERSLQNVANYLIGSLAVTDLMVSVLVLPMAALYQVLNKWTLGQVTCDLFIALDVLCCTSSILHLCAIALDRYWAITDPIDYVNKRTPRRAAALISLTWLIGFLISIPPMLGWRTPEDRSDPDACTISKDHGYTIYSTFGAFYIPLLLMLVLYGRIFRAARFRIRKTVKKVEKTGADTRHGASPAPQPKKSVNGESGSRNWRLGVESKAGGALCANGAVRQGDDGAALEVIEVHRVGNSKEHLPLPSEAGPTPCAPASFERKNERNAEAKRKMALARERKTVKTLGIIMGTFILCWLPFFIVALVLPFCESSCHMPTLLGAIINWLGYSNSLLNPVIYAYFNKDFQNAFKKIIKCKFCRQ
Kind of test: 5-HT1A receptor inhibition (Table 3). The test is classed as binding.

Where a name gives a salt, the structure may show the parent alone.

Ki and inhibition data for 22 molecules are collected here from patent publication US9663464B2, “Carbazole derivatives acting on 5-HT7 receptor” (KOREA INSTITUTE OF SCIENCE AND TECHNOLOGY, priority 2015, dated 2017).

T1 sequence (P34969 whole entry): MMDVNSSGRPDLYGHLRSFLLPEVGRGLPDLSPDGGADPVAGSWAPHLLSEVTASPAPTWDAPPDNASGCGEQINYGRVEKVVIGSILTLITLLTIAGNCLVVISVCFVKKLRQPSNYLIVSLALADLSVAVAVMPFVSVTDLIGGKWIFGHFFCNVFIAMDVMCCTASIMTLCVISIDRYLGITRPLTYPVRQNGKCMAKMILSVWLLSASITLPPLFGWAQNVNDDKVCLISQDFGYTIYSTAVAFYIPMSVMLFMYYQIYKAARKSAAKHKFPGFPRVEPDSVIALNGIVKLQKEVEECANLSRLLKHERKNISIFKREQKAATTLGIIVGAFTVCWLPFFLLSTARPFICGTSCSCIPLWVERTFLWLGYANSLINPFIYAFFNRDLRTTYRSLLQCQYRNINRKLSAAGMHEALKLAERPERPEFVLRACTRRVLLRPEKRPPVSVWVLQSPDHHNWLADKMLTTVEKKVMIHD
5-HT6, sequence (P50406 whole entry, species assumed): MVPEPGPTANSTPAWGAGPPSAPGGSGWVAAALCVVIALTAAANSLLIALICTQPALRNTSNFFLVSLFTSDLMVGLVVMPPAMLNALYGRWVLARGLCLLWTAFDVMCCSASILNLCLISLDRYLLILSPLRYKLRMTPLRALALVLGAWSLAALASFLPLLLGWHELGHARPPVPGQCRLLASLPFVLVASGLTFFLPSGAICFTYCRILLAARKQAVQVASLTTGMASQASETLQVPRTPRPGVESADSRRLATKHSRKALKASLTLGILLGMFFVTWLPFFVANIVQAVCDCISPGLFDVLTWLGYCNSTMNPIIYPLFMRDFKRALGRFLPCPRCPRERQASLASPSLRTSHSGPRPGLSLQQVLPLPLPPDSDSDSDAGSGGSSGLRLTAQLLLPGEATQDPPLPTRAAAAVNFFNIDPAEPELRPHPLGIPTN

Usually Ki stands for the equilibrium dissociation constant of an inhibitor or competing ligand from its target. Broadly, the inhibition is the change of the read-out against control, counted positive when it falls. Take `O=C(CCCCN1CCC(c2ccccc2)CC1)n1c2ccccc2c2ccccc21` [Example 2.25, 1-(9H-carbazol-9-yl)-5-(4-phenylpiperidin-1-yl)pentan-1-one hydrochloride]: the Ki was found to be 1500 nM at 5-HT6, 153 nM in test [1] and 905 nM on 5-HT2C. The results for the inhibition at 10 µM (on 5-HT6; in test [1]; on 5-HT2C) were 67%, 96% and 53.2%, respectively.

For `O=C(CCCCN1CCC(Cc2ccccc2)CC1)n1c2ccccc2c2ccccc21` [Example 2.26, 5-(4-Benzylpiperidin-1-yl)-1-(9H-carbazol-9-yl)pentan-1-one hydrochloride], the inhibition constant (Ki) on 5-HT6 was 302 nM; in test [1], 312 nM. For the same molecule, the inhibition at 10 µM came to 93.4% on 5-HT6, 97.4% in test [1] and 43.1% on 5-HT2C.

With `CN1CCN(CCCCC(=O)n2c3ccccc3c3ccccc32)CC1` [Example 2.28, 1-(9H-carbazol-9-yl)-5-(4-methylpiperazin-1-yl)pentan-1-one hydrochloride], the figures for the inhibition at 10 µM (on 5-HT6; in test [1]; on 5-HT1A) were 78.4%, 40.4% and 15.9%, respectively.

Consider `O=C(CCCCN1CCN(c2ccccc2O)CC1)n1c2ccccc2c2ccccc21` [Example 2.30, 1-(9H-carbazol-9-yl)-5-(4-(2-hydroxyphenyl)piperazin-1-yl)pentan-1-one hydrochloride], for which the inhibition at 10 µM came out at 62.6% at 5-HT6, 98.7% in test [1] and 102% on 5-HT1A. The Ki in test [1] came to 86 nM.

With `O=C(CCCN1CCN(Cc2ccccc2)CC1)n1c2ccccc2c2ccccc21` [Example 2.32, 4-(4-Benzylpiperazin-1-yl)-1-(9H-carbazol-9-yl)butan-1-one hydrochloride], the inhibition at 10 µM came to 14.7% at 5-HT6, 90.8% in test [1] and 69.4% against 5-HT1A. Moreover, the inhibition constant (Ki) in test [1] worked out at 404 nM.

With `O=C(CCCN1CCN(c2ccccc2O)CC1)n1c2ccccc2c2ccccc21` [Example 2.33, 1-(9H-carbazol-9-yl)-4-(4-(2-hydroxyphenyl)piperazin-1-yl)butan-1-one], the inhibition at 10 µM on 5-HT6 is 16.1%; in test [1], 97%; against 5-HT1A it was 101%. Besides, in test [1], the Ki was found to be 50 nM.

As to `c1ccc(C2CCN(CCCCCCn3c4ccccc4c4ccccc43)CC2)cc1` [Example 2.43, 9-(6-(4-Phenylpiperidin-1-yl)hexyl)-9H-carbazole], the inhibition constant (Ki) amounted to 169 nM on 5-HT6 and 212 nM in test [1]. Further, the inhibition at 10 µM on 5-HT6 was 94.9%; in test [1], 89.9%.

With `c1ccc(CC2CCN(CCCCCCn3c4ccccc4c4ccccc43)CC2)cc1` [Example 2.44, 9-(6-(4-Benzylpiperidin-1-yl)hexyl)-9H-carbazole], at 5-HT6, the affinity, expressed as Ki, was 142 nM and the inhibition at 10 µM amounted to 97.8%. In test [1], the Ki was 232 nM and the inhibition at 10 µM stood at 86.8%.

In the case of `CC(=O)N1CCN(CCCCCCn2c3ccccc3c3ccccc32)CC1` [Example 2.45, 1-(4-(6-(9H-carbazol-9-yl)hexyl)piperazin-1-yl)ethanone], the inhibition at 10 µM on 5-HT6 is 35%; in test [1], 63.1%; at 5-HT1A, 6.2%. Further, the inhibition constant Ki in test [1] is 1480 nM.

For the molecule `CN1CCN(CCCCCCn2c3ccccc3c3ccccc32)CC1` [Example 2.46, 9-(6-(4-Methylpiperazin-1-yl)hexyl)-9H-carbazole], the figures for the inhibition at 10 µM (on 5-HT6; in test [1]; against 5-HT1A) were 82.2%, 49.4% and 19.3%, respectively.

On to `c1ccc(CN2CCN(CCCCCCn3c4ccccc4c4ccccc43)CC2)cc1` [Example 2.47, 9-(6-(4-Benzylpiperazin-1-yl)hexyl)-9H-carbazole], for which the values for the inhibition at 10 µM (at 5-HT6; in test [1]; on 5-HT1A) were 77.5%, 86% and 62%, respectively. Also, the inhibition constant Ki in test [1] is 602 nM.

For the molecule `Oc1ccccc1N1CCN(CCCCCCn2c3ccccc3c3ccccc32)CC1` [Example 2.48, 2-(4-(6-(9H-carbazol-9-yl)hexyl)piperazin-1-yl)phenol], the inhibition at 10 µM on 5-HT6 turned out to be 96.9%; in test [1] it was 90.5%; at 5-HT1A, 105%. In test [1], the Ki stood at 89 nM.

On to `COc1ccccc1N1CCN(CCCCCCn2c3ccccc3c3ccccc32)CC1` [Example 2.49, 9-(6-(4-(2-Methoxyphenyl)piperazin-1-yl)hexyl)-9H-carbazole], for which the inhibition at 10 µM came to 85.1% on 5-HT6, 85.7% in test [1] and 105% on 5-HT1A. In test [1], the Ki stood at 145 nM.

With `c1ccc(C2CCN(CCCCCn3c4ccccc4c4ccccc43)CC2)cc1` [Example 2.50, 9-(5-(4-Phenylpiperidin-1-yl)pentyl)-9H-carbazole], at 5-HT6, the Ki amounted to 123 nM and the inhibition at 10 µM amounted to 96.1%. Further, in test [1], the Ki was 178 nM and the inhibition at 10 µM stood at 94.1%.

As for `c1ccc(CN2CCN(CCCCCn3c4ccccc4c4ccccc43)CC2)cc1` [Example 2.51, 9-(5-(4-Benzylpiperazin-1-yl)pentyl)-9H-carbazole], the inhibition at 10 µM at 5-HT6 was determined as 65.1%; in test [1] it was 86.8%; on 5-HT1A, 74.9%. The Ki in test [1] stood at 233 nM.

For the molecule `Oc1ccccc1N1CCN(CCCCCn2c3ccccc3c3ccccc32)CC1` [Example 2.52, 2-(4-(5-(9H-carbazol-9-yl)pentyl)piperazin-1-yl)phenol], the figures for the inhibition at 10 µM (at 5-HT6; in test [1]; against 5-HT1A) were 95.5%, 94.4% and 103%, respectively. Also, in test [1], the Ki worked out at 31 nM.

For the molecule `COc1ccccc1N1CCN(CCCCCn2c3ccccc3c3ccccc32)CC1` [Example 2.53, 9-(5-(4-(2-Methoxyphenyl)piperazin-1-yl)pentyl)-9H-carbazole], the inhibition at 10 µM on 5-HT6 is 75.5%; in test [1], 91.5%; on 5-HT1A, 101%. In test [1], the inhibition constant Ki came to 65 nM.

For the molecule `c1ccc(C2CCN(CCCCn3c4ccccc4c4ccccc43)CC2)cc1` [Example 2.54, 9-(4-(4-Phenylpiperidin-1-yl)butyl)-9H-carbazole], the Ki came out at 1430 nM on 5-HT6 and 205 nM in test [1]. For the same molecule, the inhibition at 10 µM on 5-HT6 is 55.5%; in test [1], 94.4%.

As for `COc1ccccc1N1CCN(CCCCn2c3ccccc3c3ccccc32)CC1` [Example 2.56, 9-(4-(4-(2-Methoxyphenyl)piperazin-1-yl)butyl)-9H-carbazole], the inhibition at 10 µM on 5-HT6 was determined as 56.3%; in test [1] it was 92.5%; against 5-HT1A it was 104%. In test [1], the Ki was found to be 64 nM.

In the case of `c1ccc(C2CCN(CCCn3c4ccccc4c4ccccc43)CC2)cc1` [Example 2.57, 9-(3-(4-Phenylpiperidin-1-yl)propyl)-9H-carbazole], on 5-HT6, the inhibition at 10 µM was 32.9%. Besides, in test [1], the Ki came out at 353 nM and the inhibition at 10 µM came out at 91.1%.

For the molecule `c1ccc(CN2CCN(CCCn3c4ccccc4c4ccccc43)CC2)cc1` [Example 2.58, 9-(3-(4-Benzylpiperazin-1-yl)propyl)-9H-carbazole], the inhibition at 10 µM at 5-HT6 is 15.1%; in test [1], 88.7%; against 5-HT1A, 64.9%. In test [1], the inhibition constant (Ki) stood at 404 nM.

For `Oc1ccccc1N1CCN(CCCn2c3ccccc3c3ccccc32)CC1` [Example 2.59, 2-(4-(3-(9H-carbazol-9-yl)propyl)piperazin-1-yl)phenol], the inhibition at 10 µM at 5-HT6 came out at 21.7%; in test [1], 94.7%; against 5-HT1A, 105%. In addition, the Ki in test [1] is 96 nM.
